# Where a name gives a salt, the structure may show the parent alone. Read-outs that look alike come from different tables or passages of the source.
# Key:
# NMDA receptor [1] = biological target: T1, NMDA receptor (Rattus norvegicus, UniProt P35439); experiment: Patch clamp, inward currents to NMDA in cultured superior colliculus neurones; assay type: cell-based; conditions: NMDA 200 μM, glycine 1 μM
# T1 construct: endogenous in cells
# Experimental: Cells were mechanically dissociated in 0.05% DNAase / 0.3% ovomucoid (Sigma) following a 15 minute pre-incubation with 0.66% trypsin / 0.1% DNAase (Sigma). The dissociated cells were then centrifuged at 18G for 10 minutes, resuspended in minimum essential medium (Gibco) and plated at a density of 200,000 cells cm onto poly-L-lysine (Sigma)-precoated plastic petri dishes (Falcon). The cells were nourished with NaHCO3 /HEPES-buffered minimum essential medium supplemented with 5% foetal calf serum and 5% horse serum (Gibco) and incubated at 37° C. with 5%CO2 at 95% humidity. The medium was exchanged completely following inhibition of further glial mitosis with cytosine-β-D-arabinofuranoside (20 μM Sigma) after about 7 days in vitro. Thereafter the medium was exchanged partially twice weekly. […] Moreover, the relatively small neurones (soma 15-20 μm .phi.) are ideally suited to minimise problems of buffered diffusion for concentration clamp experiments.
# Patch clamp recordings were made from these neurones with polished glass electrodes (4-6 m.OMEGA.) in the whole cell mode at room temperature (20°-22° C.) with the aid of an EPC-7 amplifier (List). Test substances were applied by switching channels of a custom made fast superfusion system with a common outflow (10-20 ms exchange times). The contents of the intracellular solution were as follows (mM): CsCl (120), TEACl (20), EGTA (10), MgCl2 (1), CaCl2 (0.2), glucose (10), ATP (2), cAMP (0.25); pH was adjusted to 7.3 with CsOH or HCl. The extracellular solutions had the following basic composition (mM): NaCl (140), KCl (3), CaCl2 (0.2), glucose (10), HEPES (10), sucrose (4.5), tetrodotoxin (TTX 3*10-4). For most experiments glycine (1 μM) was present in all solutions. Experiments to test the glycine-dependence of the tricyclic "pyrido-phtalazin diones" were performed in the continuous presence of increasing concentrations of glycine (1-10 μM).
# This effect was mediated at the glycineB site as evidenced by the parallel shift in the concentration-response curves in the presence of increasing glycine concentrations. Thus the Kbs of Mrz 2/502 as assessed according to the Cheng-Prusoff relationship were similar in glycine 1, 3 and 10 μM (80, 124 and 118 nM respectively). […] Choline derivatives had similar potencies to the free acids in vitro (Table14b).
# NMDA receptor [2] = biological target: T2, NMDA receptor (Mus musculus, UniProt P35438); experiment: Maximal electroshock (MES)-induced tonic convulsions; assay type: in vivo; conditions: for ED50: mouse, ip, 0.25 h, read-out: MES ID50; for ED50 / MES ID50: i.p., 15 min before induction
# T2 construct: from tissue; host or cells: living mice (albino Swiss males for NMDA and PTZ tests, NMR females for MES)
# Experimental: (§1) To assess NMDA receptor antagonistic properties of the tested agents by assessing anticonvulsive effects. Additionally the role of organic acid transporters in the elimination from the brain of tested agents was assessed by using an inhibitor, Probenicid, on the duration of anticonvulsive activity.
# (§2) Male albino Swiss mice (19-21 g) housed 10-15 per cage were used for the NMDA lethality test (Leander et al., 1988). For pentylenetetrazol (PTZ)-induced convulsions male albino Swiss mice (25-34 g.) housed 40 per cage (58×38×20 cm) were used while in the maximal electroshock (MES) and motor impairment tests NMR female mice (18-28 g) housed 5 per cage were employed. All animals were kept with water and food ad libittum under a 12-h light-dark cycle (light on at 6 a.m.), and at a controlled temperature (20°±0.5° C.). All experiments were performed between 10 a.m. and 5 p.m. Tested agents were injected 15 min. i.p before the induction of convulsions if not stated otherwise (see below). Mrz 2/502 was dissolved in saline added with NaOH. Most other agents were dissolved in the following solution: 0.606 g Tris; 5.0 g. glucose; 0.5 g. Tween 80; and 95 ml water. The choline and tetramethylammonium salts were dissolved in distilled water.
# MES (100 Hz, 0.5 sec shock duration, 50 mA shock intensity, 0.9 ms impulse duration, Ugo Basile) was applied through corneal electrodes. The presence of tonic convulsions was scored (tonic extension of hind paws with minimum angle to the body of 90°). In an additional experiment mice were injected with Probenicid (200 mg/kg) 30 min before administration of the tested agents to assess the role of organic acid transport in elimination (duration of action). The aim was to obtain ED50 s for all parameters scored using the Litchfield Wilcoxon (1949) test for quantal dose responses.
# NMDA receptor [3] = biological target: T2, NMDA receptor; experiment: NMDA-induced convulsions / lethality test; assay type: in vivo; conditions: ip, 0.25 h, i.p., 15 min before induction, read-out: NMDA ID50
# Experimental: as §1, §2
# In the NMDA-induced convulsions test in mice, a dose-response relationship for NMDA was first performed to determine the ED97 dose which was then used for testing of antagonistic properties. After injection of the ED97 dose of NMDA the animals were placed in a small cage (20×28×14 cm) and observed for 20 min. Death preceded by clonic convulsions and by tonic seizures was the pharmacological end-point.
# [4] = biological target: T3, glycineB site of the NMDA receptor (rat cortical membranes) (Rattus norvegicus, UniProt P35439); experiment: [3H]5,7-DCKA binding assay; conditions: 10 nM [3H]5,7-DCKA
# T3 construct: The cortex was dissected and homogenised in 20 volumes of ice-cold 0.32M sucrose; from tissue; host or cells: brain cortex membranes of male Sprague-Dawley rats
# Experimental: Tissue preparation was performed according to Foster and Wong (1987). Male Sprague-Dawley rats (200-250g) were decapitated and their brains were removed rapidly. The cortex was dissected and homogenised in 20 volumes of ice-cold 0.32M sucrose using a glass-Teflon homogenizer. The homogenate was centrifuged at 1000×g for 10 min. The pellet was discarded and the supernatant centrifuged at 20,000×g for 20 min. The resulting pellet was resuspended in 20 volumes of distilled water and centrifuged for 20 min at 8000×g. Then the supernatant and the buffy coat were centrifuged three times (48,000× g for 20 min) in the presence of 5 mM Tris-HCl, pH 7.4. All centrifugation steps were carried out at 4° C. After resuspension in 5 volumes of 5 mM Tris-HCl, pH 7.4 the membrane suspension was frozen rapidly at -80° C. until the day of assay. On the day of assay the membranes were thawed and washed four times by resuspension in 5 mM Tris-HCl, pH 7.4 and centrifugation at 48,000× g for 20 min. The final pellet was suspended in assay buffer.
# The amount of protein in the final membrane preparation was determined according to the method of Lowry (1951) with some modifications (Hartfree, 1972). 50 μl of Protein samples (in triplicates) were diluted to 1 ml with distilled water and treated with 0.9 ml of a solution containing 2 g potassium sodium tartrate and 10 g Na2 CO3 in 500 ml 1N NaOH and 500ml water. Blank and standard (with bovine serum albumin) were set up in the same way. The tubes were placed in a water bath at 50° C. for 10 min. and cooled at room temperature. 100 μl of a solution containing 2 g potassium sodium tartrate and 1 g CuSO4 x 5 H2 O in 90 ml water and 10 ml 1N NaOH were added. The samples were left at room temperature for at least 10 min., then 3 ml of Folin-Ciocalteu reagent (1 ml of reagent diluted with 15 ml water) was added rapidly during mixing. The tubes were again heated at 50° C. for 10 min. and cooled to room temperature. Absorbencies were then read in 1 cm cuvets at 650 nm. The final protein concentration used for our studies was between 100 and 250 μg/ml.
# Incubation in both binding assays was terminated using a Millipore filter system. The samples, all in triplicate, were rinsed three times with 2.5 ml ice cold assay buffer over glass fibre filters obtained from Schleicher & Schuell under a constant vacuum. Following separation and rinse the filters were placed into scintillation liquid (5 ml; Ultima Gold) and radioactivity retained on the filters was determined by using conventional liquid scintillation counter (Hewlett Packard, Liquid Scintillation Analyser). `Total binding` was the absolute amount of radioligand bound in the absence of any additives whereas `non-specific` binding was determined in the presence of a high concentration of competitor.
# [^3 H]5,7-DCKA binding assay
# Experiments were performed according to the methods modified from previous groups (Canton et al., 1991; Yoneda et al., 1993). Membranes were suspended and incubated in 10 mM Tris-HCl, pH 7.4. Incubation time was 45 min at 4° C. Non-specific binding of [^3 H]5,7-DCKA was defined by the addition of unlabeled glycine at 0.1 mM. The stop-solution contained 10 mM Tris-HCl and 10 mM magnesium sulphate, pH 7.4. Filtration was performed as rapidly as possible. Displacement experiments were performed with a fixed [^3 H]5,7-DCKA concentration of 10 nM. Test compounds were diluted in water or DMSO and added in at least 5 different concentrations.
# NMDA receptor [5] = biological target: T1, NMDA receptor; experiment: Microelectrophoretic application of NMDA to spinal neurones in vivo; conditions: responses of single rat spinal neurones; for Microelectrophoretic NMDA ID50: i.v.; for ED50: rat, iv, read-out: Microelectrophoretic NMDA ID50
# Experimental: (§3) The ability of these glycineB antagonists to act as NMDA receptor antagonists in vivo was assessed using i.v. administration against responses of single neurones in the rat spinal cord to microelectrophoretic application of AMPA and NMDA.
# AMPA = experiment: Microelectrophoretic application of AMPA to spinal neurones in vivo; conditions: i.v., responses of single rat spinal neurones
# Experimental: as §3
# [6] = peak currents, read-out: Peak NMDA IC50
# [7] = plateau (steady-state) currents, read-out: Plateau NMDA IC50
SMILES,IC50 (NMDA receptor [1]; [6]) [µM],IC50 (NMDA receptor [1]; [7]) [µM],IC50 [4] [µM],other results
COc1ccc2nc3c(=O)[nH][nH]c(=O)c3cc2c1 [Mrz 2/554],170,36.2,–,ED50 (NMDA receptor [2]): > 100 mg/kg
"O=c1[nH]nc(O)c2c1cc1cc(Cl)c(Cl)cc1[n+]2[O-] [Mrz 2/518, 7,8-dichloro-4-hydroxy-1-oxo-1,2-dihydropyridazino-[4,5-b]-quinoline 5-oxide]",3.8,0.8,0.65,ED50 (NMDA receptor [3]): > 100 mg/kg; ED50 (NMDA receptor [2]): > 60 mg/kg
"O=c1[nH]nc(O)c2c1cc1cc(F)ccc1[n+]2[O-] [Mrz 2/571, 8-fluoro-4-hydroxy-1-oxo-1,2-dihydropyridazino[4,5-b]-quinoline 5-oxide choline salt]",4.9,1,0.32,"Microelectrophoretic NMDA ID50 (NMDA receptor [5]; listed as 571): 4.7 mg/kg; Microelectrophoretic AMPA ID50 (AMPA; listed as 571): 9.2 mg/kg; MES ID50 (NMDA receptor [2]; listed as 571, 15 min): 15.5 mg/kg"
"O=c1[nH]nc(O)c2c1cc1cc(Cl)ccc1[n+]2[O-] [Mrz 2/576, 8-chloro-4-hydroxy-1-oxo-1,2-dihydropyridazino[4,5-b]-quinoline 5-oxide choline salt]",1.1,0.5,0.45,"Microelectrophoretic NMDA ID50 (NMDA receptor [5]; listed as 576): 2.8 mg/kg; Microelectrophoretic AMPA ID50 (AMPA; listed as 576): > 16.0 mg/kg; MES ID50 (NMDA receptor [2]; listed as 576, 15 min): 7.7 mg/kg"
O=c1[nH][nH]c(=O)c2nc3cc(Cl)c(Cl)cc3cc12 [Mrz 2/574],–,–,–,"MES ID50 (NMDA receptor [2]; listed as 574, 15 min): > 100 mg/kg"
O=c1[nH][nH]c(=O)c2nc3ccc(Cl)cc3cc12 [Mrz 2/569],2,0.5,0.97,"ED50 (NMDA receptor [5]): > 16 mg/kg; Microelectrophoretic AMPA ID50 (AMPA): > 16.0 mg/kg; MES ID50 (NMDA receptor [2]; listed as 569, 15 min): > 50 mg/kg"
COc1ccc2c(c1)cc1c(=O)[nH]nc(O)c1[n+]2[O-] [Mrz 2/578],101,7.7,–,ED50 (NMDA receptor [2]): > 100 mg/kg
O=c1[nH][nH]c(=O)c2nc3ccc(F)cc3cc12 [Mrz 2/572],12.4,3.5,1.14,"ED50 (NMDA receptor [5]): > 16 mg/kg; Microelectrophoretic AMPA ID50 (AMPA): > 16.0 mg/kg; MES ID50 (NMDA receptor [2]; listed as 572, 15 min): > 100 mg/kg"
COc1ccc2cc3c(=O)[nH][nH]c(=O)c3nc2c1 [Mrz 2/575],94,14.5,–,ED50 (NMDA receptor [2]): > 100 mg/kg
"O=c1[nH]nc(O)c2c1cc1ccccc1[n+]2[O-] [Mrz 2/577, 4-hydroxy-1-oxo-1,2-dihydro-pyridazino[4,5-b]-quinoline 5-oxide choline salt]",–,–,–,"ED50 (NMDA receptor [5]): 34 mg/kg; Microelectrophoretic AMPA ID50 (AMPA): > 32.0 mg/kg; MES ID50 (NMDA receptor [2]; listed as 577, 15 min): 23.7 mg/kg"
"O=c1[nH]nc(O)c2c1cc1cc(Cl)c(Br)cc1[n+]2[O-] [Mrz 2/568, 7-bromo-8-chloro-4-hydroxy-1-oxo-1,2-dihydropyridazino-[4,5-b]-quinoline 5-oxide]",10,1.5,–,–
"O=c1[nH]nc(O)c2c1cc1cc(Br)c(Cl)cc1[n+]2[O-] [Mrz 2/551, 7-chloro-8-bromo-4-hydroxy-1-oxo-1,2-dihydropyridazino-[4,5-b]-quinoline 5-oxide]",2.4,0.6,–,–
O=c1[nH][nH]c(=O)c2nc3ccc(Br)cc3cc12 [Mrz 2/586],2.2,–,–,"ED50 (NMDA receptor [5]): > 16 mg/kg; Microelectrophoretic AMPA ID50 (AMPA): > 16.0 mg/kg; MES ID50 (NMDA receptor [2]; listed as 586, 15 min): > 50 mg/kg"
"CCCN(CCC)S(=O)(=O)c1ccc(C(=O)O)cc1 [Probenecid, reference compound]",–,–,–,independent effect on MES-induced convulsions (NMDA receptor [2]; 200 mg/kg): no independent effect

# From US5776935A, “Pyrido-phtalazin diones and their use against neurological disorders associated with excitotoxicity and malfunctioning of glutamatergic neurotransmission” (Merz & Co. GmbH & Co., priority 1996, dated 1998)
